Values after ≈ are worked out from the molar mass of the structure shown. Read-outs that look alike come from different tables or passages of the source.
Tests used:
[1] = test system: S. aureus rpoB^H481Y gyrA^S84L parC^S80F; assay: MIC by microbroth dilution, triple mutant S. aureus; type: cell-based; details: Staphylococcus aureus, read-out: MIC S. aureus rpoB^H481Y gyrA^S84L parC^S80F
Procedure: (§1) Representative compounds are assayed for antimicrobial activity as follows: Minimum Inhibitory Concentrations (MICs) against Staphylococcus aureus ATCC 29213, its isogenic derivative, and Escherichia coli ATCC 25922 were determined by the microbroth dilution method, as per NCCLS guidelines (National Committee for Clinical Laboratory Standards 2000).

S. aureus rpoB^H481Y = assay: MIC by microbroth dilution, rifamycin-resistant S. aureus rpoB H481Y; type: cell-based, Staphylococcus aureus; details: for MIC: Staphylococcus aureus, read-out: MIC S. aureus rpoB^H481Y
Procedure: as §1

[2] = test system: Escherichia coli ATCC 25922; assay: MIC by microbroth dilution, E. coli ATCC 25922; type: cell-based
Procedure: as §1

[3] = test system: S. aureus gyrA^S84L parC^S80F; assay: MIC by microbroth dilution, quinolone-resistant S. aureus gyrA S84L parC S80F; type: cell-based, Staphylococcus aureus; details: for MIC: Staphylococcus aureus, read-out: MIC S. aureus gyrA^S84L parC^S80F
Procedure: as §1

[4] = test system: Staphylococcus aureus ATCC 29213; assay: MIC by microbroth dilution, S. aureus ATCC 29213; type: cell-based
Procedure: as §1

[5] = test system: Wild-type and Genetically-Defined Resistant Strains of Bacteria; assay: Antibacterial activity against wild-type and genetically-defined resistant strains (overall statement on Table 1); type: cell-based; details: summary of Table 1
Procedure: as §1

[6] = ATCC25922, read-out: MIC E. coli ATCC# 25922
[7] = ATCC29213, read-out: MIC S. aureus ATCC# 29213
[8] = ATCC25922, microbroth dilution, NCCLS, read-out: MIC E. coli ATCC# 25922
[9] = ATCC29213, wild-type, microbroth dilution, NCCLS, read-out: MIC S. aureus ATCC# 29213

| Structure (SMILES) | MIC [1] | MIC (S. aureus rpoB^H481Y) | MIC [2, 6] | MIC [3] | MIC [4, 7] | antibacterial activity (in words) [5] | MIC [2, 8] | activity against quinolone-resistant S. aureus gyrA^S84L parC^S80F (in words) ([3]; mutations in gyrase and topoisomerase IV) | MIC [4, 9] | activity against rifamycin-resistant S. aureus rpoB^H481Y (in words) (S. aureus rpoB^H481Y; mutation in RNA polymerase) |
| --- | --- | --- | --- | --- | --- | --- | --- | --- | --- | --- |
| CO[C@H]1/C=C/O[C@@]2(C)Oc3c(C)c(O)c4c(=O)c(c5oc6cc(N7CCC(N(C)C8([C@@H]9CCN(c%10c(F)cn%11c(=O)c(C(=O)O)cc(C%12CC%12)c%11c%10C)C9)CC8)CC7)cc(O)c6nc-5c4c3C2=O)NC(=O)/C(C)=C\C=C\[C@H](C)[C@H](O)[C@@H](C)[C@@H](O)[C@@H](C)[C@H](OC(C)=O)[C@@H]1C [Example 1] | 2 µg/mL (≈ 1.56 µM) | 0.12 µg/mL (≈ 0.0936 µM) | 0.5 µg/mL (≈ 0.39 µM) | < 0.004 µg/mL | < 0.004 µg/mL |  |  |  |  |  |
| COc1c(N2CC[C@@H](C3(N(C)C4CCN(c5cc(O)c6nc7c8c9c%10c(C)c(O)c8c(=O)c(c-7oc6c5)NC(=O)/C(C)=C\C=C\[C@H](C)[C@H](O)[C@@H](C)[C@@H](O)[C@@H](C)[C@H](OC(C)=O)[C@H](C)[C@@H](OC)/C=C/O[C@@](C)(O%10)C9=O)CC4)CC3)C2)c(F)cc2c(=O)c(C(=O)O)cn(C3CC3)c12 [Example 2, (R)-5′-[4-[1-[1-(3-Carboxy-1-cyclopropyl-6-fluoro-8-methoxy-4-oxo-1,4-dihydro-quinoline-7-yl)-pyrrolidin-3-yl-cyclopropyl-methyl]-amino]-piperidin-1-yl]-3′-hydroxy-benzoxazinorifamycin] | 4 µg/mL (≈ 3.08 µM) | 0.5 µg/mL (≈ 0.385 µM) | 4 µg/mL (≈ 3.08 µM) | 0.016 µg/mL (≈ 0.0123 µM) | 0.008 µg/mL (≈ 0.00617 µM) | potent antibacterial activity |  |  |  |  |
| COc1c(N2CCN(c3cc(O)c4nc5c6c7c8c(C)c(O)c6c(=O)c(c-5oc4c3)NC(=O)/C(C)=C\C=C\[C@H](C)[C@H](O)[C@@H](C)[C@@H](O)[C@@H](C)[C@H](OC(C)=O)[C@H](C)[C@@H](OC)/C=C/O[C@@](C)(O8)C7=O)CC2)c(F)cc2c(=O)c(C(=O)O)cn(C3CC3)c12 [Example 3, 5′-[4-(3-Carboxy-1-cyclopropyl-6-fluoro-8-methoxy-4-oxo-1,4-dihydroquinolin-7-yl)-piperazin-1-yl]-3′-hydroxy-benzoxazinorifamycin] | 8 µg/mL (≈ 6.9 µM) | 0.24 µg/mL (≈ 0.207 µM) | 4 µg/mL (≈ 3.45 µM) | 0.008 µg/mL (≈ 0.0069 µM) | 0.008 µg/mL (≈ 0.0069 µM) | potent antibacterial activity |  |  |  |  |
| O=C(O)c1cn(C2CC2)c2cc(N3CCNCC3)c(F)cc2c1=O [ciprofloxacin, reference compound] | > 32 µg/mL | 0.24 µg/mL (≈ 0.724 µM) |  | > 32 µg/mL |  |  | 0.008 µg/mL (≈ 0.0241 µM) | not as effective | 0.24 µg/mL (≈ 0.724 µM) |  |
| CO[C@H]1/C=C/O[C@@]2(C)Oc3c(C)c(O)c4c(O)c(c(/C=N/N5CCN(C)CC5)c(O)c4c3C2=O)NC(=O)/C(C)=C\C=C\[C@H](C)[C@H](O)[C@@H](C)[C@@H](O)[C@@H](C)[C@H](OC(C)=O)[C@@H]1C [rifampin, reference compound] | > 64 µg/mL | > 64 µg/mL |  | 0.008 µg/mL (≈ 0.00972 µM) |  |  | 8 µg/mL (≈ 9.72 µM) |  | 0.008 µg/mL (≈ 0.00972 µM) | not as effective |

Source: patent US7884099B2 (priority 2007, dated 2011)
